Data taken from article PMC1716192, “A Plant-Derived Morphinan as a Novel Lead Compound Active against Malaria Liver Stages” (PLoS Medicine, 2006).
Read-outs that look alike come from different tables or passages of the source.

Tests used:
Type in all cases: cell-based
[1] = tested on: P. yoelii (265 BY strain) hepatic stages; assay: In vitro assay for P. yoelii liver stage inhibition in primary mouse hepatocytes
Description: (§1) P. yoelii (265 BY strain) and P. falciparum (NF 54 strain) sporozoites were obtained by dissection of infected Anopheles stephensi salivary glands. Primary mouse hepatocytes were isolated as previously described and seeded in eight-well Lab-Tek plastic chamber slides (VWR, Fontenay-sous-Bois, France) previously coated with rat-tail collagen I (BD Biosciences, Le Pont de Claix, France) at a density of 10^5 cells per well. Mouse hepatocytes were cultured at 37 °C in 5% CO2 in William's E medium supplemented with 10% fetal calf serum, 1% L-glutamine, 1% sodium pyruvate, 1% insulin-transferrin-selenium, 1% nonessential amino acids, and 1% penicillin-streptomycin (all from Invitrogen, Cergy-Pontoise, France), for 24 h before inoculation of P. yoelii sporozoites (10^5 per well). Human liver fragments were collected following informed consent provided from patients undergoing a partial hepatectomy. The collection and use of these tissues were undertaken in accordance with French Government ethical regulations. Primary human hepatocytes were isolated from the healthy parts of these liver biopsies as previously described. Human hepatocytes were seeded in LabTek plastic chamber slides coated with collagen, at a density of 1.8 × 10^5 cells per well and cultured at 37 °C in 5% CO2 in the same medium as above, supplemented with 10^−7 M dexamethasone (Sigma) and 2% DMSO after complete cell adherence (12–24 h), for at least 48 h before inoculation of P. falciparum sporozoites (10^5 per well). For a standard assay, the plant extract, the purified compound, or primaquine was solubilized in DMSO, further diluted in culture medium (equal DMSO concentrations of <0.3% per well), and then added to hepatocyte cultures at the time of sporozoite inoculation. Three hours later, after sporozoite penetration into hepatocytes, cultures were washed and further incubated in the presence of the drug. Culture medium containing the appropriate drug concentration was changed daily until 48 h for P. yoelii, or until 5 d for P. falciparum. Parasites were quantified on the last day of incubation. For the in vitro timing experiments, tazopsine treatment of P. yoelii and P. falciparum cultures was undertaken for different periods during the cultivation: 0 h to 3 h, 3 h to 24 h, or 24 h to 48 h after P. yoelii sporozoite inoculation (quantification at 48 h), or 0 h to 2 d, or 3 d to 5 d after P. falciparum sporozoite inoculation (quantification at 5 d). […] Cells were stained with Evans Blue (0.4%), and parasites and cells nuclei were stained with 1 μg/ml of diamidino-phenylindole (DAPI; Sigma). Parasite numbers were counted under a fluorescence microscope with a 25× light microscope objective.
(§2) IC50 and TC50 were calculated by nonlinear regression using four-parameter logistic curves on the SigmaPlot 10.0 software (http://www.systat.com). Each IC50 or TC50 is expressed as a mean between two independent experiments, followed by the standard error of the mean.

[2] = tested on: P. falciparum (NF 54 strain) hepatic stages; assay: In vitro assay for P. falciparum liver stage inhibition in primary human hepatocytes; conditions: P. falciparum hepatic stages in primary human hepatocytes; for IC50: quantified at 5 d, read-out: IC50
Description: as §1, with “objective. IC50 values, the drug concentration at which a 50% reduction in the number of parasites was observed, as compared to the number in the DMSO control cultures, were derived from two independent experiments in which each concentration was tested in triplicate wells.” for “objective.”
as §2

[3] = tested on: primary mouse hepatocytes; assay: In vitro assay for cell viability (neutral red), mouse hepatocytes; conditions: 48 h drug exposure
Description: (§3) Primary hepatocytes of mice or humans were prepared as above and seeded in 96-well plates coated with collagen, at a density of 5 × 10^4 and 7 × 10^4 cells per well, respectively. Drugs were added to the culture medium, which was changed daily after 24 h or 48 h of incubation for mouse and human hepatocytes, respectively. After 48 h of drug exposure (mouse hepatocytes) or 5 d (human hepatocytes), 50 μl of neutral red (Sigma) at 0.02% in phosphate-buffered saline (PBS) were added per well and incubated for 24 additional hours. Cultures were then washed with PBS and the neutral red extracted with 1% SDS from viable cells and quantified by measuring the OD540 on a microplate autoreader photometer (BioTek Instruments, Winooski, Vermont, United States).
as §2

[4] = tested on: primary human hepatocytes; assay: In vitro assay for cell viability (neutral red), human hepatocytes; conditions: 5 d drug exposure
Description: as §3, §2

[5] = Plasmodium yoelii, Hepatocyte, 48 h

Row | SMILES | IC50 [1, 5] [µM] | IC50 ([1]; P. yoelii hepatic stages in primary mouse hepatocytes, quantified at 48 h, read-out: IC50) [µM] | IC50 ([1]; Plasmodium yoelii, Hepatocyte, 48 h, P. yoelii hepatic stages in primary mouse hepatocytes, quantified at 48 h, read-out: IC50) [µM] | IC90 ([1]; Plasmodium yoelii, Hepatocyte, P. yoelii hepatic stages in primary mouse hepatocytes, 48 h, read-out: IC90) [µM] | IC50 [2] [µM] | IC50 ([2]; Plasmodium falciparum, Hepatocyte, 120 h) [µM] | IC90 ([2]; Plasmodium falciparum, Hepatocyte, 120 h, 5 d, read-out: IC90) [µM] | TC50 [3] [µM] | TC50 [4] [µM]
1 | COc1ccc2c3c1O[C@H]1[C@@H](O)C=C[C@H]4[C@@H](C2)N(C)CC[C@@]341 [codeine, reference compound] | > 100 | – | – | – | – | – | – | – | –
2 | COC1=CC=C2[C@H]3Cc4ccc(OC)c5c4[C@@]2(CCN3C)[C@H]1O5 [thebaine, reference compound] | > 100 | – | – | – | – | – | – | – | –
3 | COc1cc(NC(C)CCCN)c2ncccc2c1 (stereo not shown) [Primaquine, reference compound] | – | 0.64 ± 0.1 | ~1 | > 30 | 0.8 ± 0.9 | ~1 | 4.1 ± 0.5 | 70.5 ± 4.3 | 65.2 ± 11.9
